# Legend:
# Assay type in all cases: cell-based
# [1] = molecular target: T1, PTGER4 (EP4) (Homo sapiens, UniProt P35408); experiment: hEP4 b-arrestin assay (PathHunter HEK 293 PTGER4 b-arrestin cells); conditions: antagonistic activity, beta-arrestin assay; read-out: hEP4 b-arr IC50
# T1 construct: host or cells: HEK 293 (PathHunter PTGER4 b-arrestin cell line)
# Method in brief: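 PathHunter HEK 293 cells expressing ProLink-tagged human EP4 and EA-β-arrestin 2, seeded 24 h before. Compounds (10 μM–2 nM or 1 μM–0.2 nM) preincubated 15 min at 37 °C, then 20 nM PGE2 (EC80) for 120 min at 37 °C. β-gal complementation luminescence read; IC50 from duplicate dose-response curves versus DMSO control.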
# [2] = molecular target: T2, PTGER2 (EP2) (Homo sapiens, UniProt P43116); experiment: hEP2 b-arrestin assay (PathHunter HEK 293 PTGER2 b-arrestin cells); conditions: antagonistic activity, beta-arrestin assay; read-out: hEP2 b-arr IC50
# T2 construct: host or cells: HEK 293 (PathHunter PTGER2 b-arrestin cell line)
# Method in brief: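 PathHunter HEK293 cells with ProLink-tagged EP2 and EA-β-arrestin 2 preincubated 15 min at 37 °C with compound (10 μM-2 nM or 1 μM-0.2 nM), then stimulated 120 min with 5 μM PGE2 (EC80). β-gal complementation read by chemiluminescence; IC50 from duplicate dose-response versus DMSO.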
# [3] = molecular target: T3, EP2 receptor (Homo sapiens, UniProt P43116); experiment: hEP2 cAMP assay (SF295 glioblastoma cells, HTRF cAMP, PGE2 stimulation); conditions: antagonistic activity
# T3 construct: SF295 glioblastoma cells express high endogenous EP2 and no EP4; host or cells: SF295 glioblastoma cells
# Method in brief: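 SF295 glioblastoma cells with endogenous EP2 and no EP4, in HBSS/HEPES/BSA with 2 mM IBMX, pre-incubated 45 min at room temperature with compound, then stimulated 30 min with 75 nM PGE2 (EC80). cAMP measured by HTRF; IC50 fitted from duplicate % cAMP versus DMSO control.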
# T2 sequence (P43116 whole entry): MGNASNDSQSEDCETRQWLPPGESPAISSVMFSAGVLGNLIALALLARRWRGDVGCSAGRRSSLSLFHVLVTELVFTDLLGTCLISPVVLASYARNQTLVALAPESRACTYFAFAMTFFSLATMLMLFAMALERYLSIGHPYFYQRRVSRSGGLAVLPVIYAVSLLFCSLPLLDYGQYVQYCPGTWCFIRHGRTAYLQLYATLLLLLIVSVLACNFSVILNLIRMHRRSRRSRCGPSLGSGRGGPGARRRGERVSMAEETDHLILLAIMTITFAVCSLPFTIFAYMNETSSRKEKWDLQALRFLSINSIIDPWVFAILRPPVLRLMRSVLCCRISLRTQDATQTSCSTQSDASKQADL
# T3 sequence (P43116 whole entry): as above
# T1 sequence (P35408 whole entry): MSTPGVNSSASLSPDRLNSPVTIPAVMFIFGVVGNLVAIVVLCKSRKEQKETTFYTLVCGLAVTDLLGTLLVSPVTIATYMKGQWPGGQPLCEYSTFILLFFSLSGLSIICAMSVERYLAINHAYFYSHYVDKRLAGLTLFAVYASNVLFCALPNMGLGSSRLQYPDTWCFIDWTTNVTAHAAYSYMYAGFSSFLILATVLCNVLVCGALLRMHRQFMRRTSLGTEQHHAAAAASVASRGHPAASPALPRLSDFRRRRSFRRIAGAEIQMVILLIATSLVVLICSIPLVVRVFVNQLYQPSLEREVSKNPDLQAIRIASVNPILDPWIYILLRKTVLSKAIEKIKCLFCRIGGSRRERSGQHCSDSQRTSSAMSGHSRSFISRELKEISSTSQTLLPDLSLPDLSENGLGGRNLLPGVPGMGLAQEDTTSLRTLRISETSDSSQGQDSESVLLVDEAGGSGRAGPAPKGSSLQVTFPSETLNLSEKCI
Structure (SMILES),IC50 [1],IC50 [2],IC50 [3]
"CCOc1cc(-c2cc(NCCc3c(C)sc4c(C)c(F)ccc34)ncn2)ccc1C(=O)O [Example 62, 2-Ethoxy-4-{6-[2-(6-fluoro-2,7-dimethyl-benzo[b]thiophen-3-yl)-ethylamino]-pyrimidin-4-yl}-benzoic acid]",499 nM,12 nM,14 nM
"CCOc1cc(-c2cc(NCCc3c(C)sc4c(C)ccc(Cl)c34)ncn2)ccc1C(=O)O [Example 66, 4-{6-[2-(4-Chloro-2,7-dimethyl-benzo[b]thiophen-3-yl)-ethylamino]-pyrimidin-4-yl}-2-ethoxy-benzoic acid]",407 nM,27 nM,101 nM
"CCOc1cc(-c2cc(NCCc3c(C)oc4c(OC)ccc(F)c34)ncn2)ccc1C(=O)O [Example 67, 2-Ethoxy-4-{6-[2-(4-fluoro-7-methoxy-2-methyl-benzofuran-3-yl)-ethylamino]-pyrimidin-4-yl}-benzoic acid]",369 nM,73 nM,142 nM
"CCOc1cc(-c2cc(NCCc3c(C)oc4c(Cl)cccc34)ncn2)ccc1C(=O)O [Example 68, 4-{6-[2-(7-Chloro-2-methyl-benzofuran-3-yl)-ethylamino]-pyrimidin-4-yl}-2-ethoxy-benzoic acid]",659 nM,14 nM,39 nM
"CCOc1cc(-c2cc(NCCc3c(C)oc4c(C)cc(F)cc34)ncn2)ccc1C(=O)O [Example 69, 2-Ethoxy-4-{6-[2-(5-fluoro-2,7-dimethyl-benzofuran-3-yl)-ethylamino]-pyrimidin-4-yl}-benzoic acid]",668 nM,24 nM,74 nM
"CCOc1cc(-c2cc(NCCc3c(C)oc4c(Cl)cc(Cl)cc34)ncn2)ccc1C(=O)O [Example 71, 4-{6-[2-(5,7-Dichloro-2-methyl-benzofuran-3-yl)-ethylamino]-pyrimidin-4-yl}-2-ethoxy-benzoic acid]",958 nM,7 nM,10 nM
"Cc1sc2c(C)cccc2c1CCNc1cc(-c2ccc3c(C(=O)O)coc3c2)ncn1 [Example 76, 6-{6-[2-(2,7-Dimethyl-benzo[b]thiophen-3-yl)-ethylamino]-pyrimidin-4-yl}-benzofuran-3-carboxylic acid]",1140 nM,10 nM,39 nM
"Cc1sc2c(C)cccc2c1CCNc1cc(-c2ccc3cc(C(=O)O)oc3c2)ncn1 [Example 77, 6-{6-[2-(2,7-Dimethyl-benzo[b]thiophen-3-yl)-ethylamino]-pyrimidin-4-yl}-benzofuran-2-carboxylic acid]",1310 nM,6 nM,8 nM
"Cc1sc2c(C)cc(F)cc2c1CCNc1cc(-c2ccc(-c3nc(=O)[nH]o3)cc2)ncn1 [Example 79, 5-(4-{6-[2-(5-Fluoro-2,7-dimethyl-benzo[b]thiophen-3-yl)-ethylamino]-pyrimidin-4-yl}-phenyl)-[1,2,4]oxadiazol-3(2H)-one [tautomeric form: 5-(4-(6-((2-(5-fluoro-2,7-dimethylbenzo[b]thiophen-3-yl)ethyl)amino)pyrimidin-4-yl)phenyl)-[1,2,4]oxadiazol-3-ol]]",263 nM,26 nM,106 nM
"Cc1sc2c(C)cc(F)cc2c1CCNc1cc(-c2cc3c(C(=O)O)cccc3[nH]2)ncn1 [Example 82, 2-{6-[2-(5-Fluoro-2,7-dimethyl-benzo[b]thiophen-3-yl)-ethylamino]-pyrimidin-4-yl}-1H-indole-4-carboxylic acid]",155 nM,13 nM,21 nM
"COc1cc(Cl)cc2c(CCNc3cc(-c4ccc(C(=O)O)c(OC5CC5)c4)ncn3)c(C)oc12 [Example 83, 4-{6-[2-(5-Chloro-7-methoxy-2-methyl-benzofuran-3-yl)-ethylamino]-pyrimidin-4-yl}-2-cyclopropoxy-benzoic acid]",101 nM,22 nM,44 nM
"COc1cc(F)c(F)c2c(CCNc3cc(-c4ccc(C(=O)O)c(OC5CC5)c4)ncn3)c(C)oc12 [Example 85, 2-Cyclopropoxy-4-{6-[2-(4,5-difluoro-7-methoxy-2-methyl-benzofuran-3-yl)-ethylamino]-pyrimidin-4-yl}-benzoic acid]",374 nM,68 nM,49 nM
"CCCSc1cc(-c2cc(NCCc3c(C)sc4c(C)cccc34)ncn2)ccc1C(=O)O [Example 87, 4-{6-[2-(2,7-Dimethyl-benzo[b]thiophen-3-yl)-ethylamino]-pyrimidin-4-yl}-2-propylsulfanyl-benzoic acid]",318 nM,5 nM,15 nM
"CCCSc1cc(-c2cc(NCCc3c(C)sc4ccccc34)ncn2)ccc1C(=O)O [Example 88, 4-{6-[2-(2-Methyl-benzo[b]thiophen-3-yl)-ethylamino]-pyrimidin-4-yl}-2-propylsulfanyl-benzoic acid]",1030 nM,21 nM,11 nM

# Further molecules by falling IC50 [1], results first:
IC50 [1],IC50 [2],IC50 [3],Structure (SMILES)
4520 nM,19 nM,11 nM,"Cc1sc2c(C)cc(F)cc2c1CCNc1cc(-c2ccc(C(=O)O)c(OCCO)c2)ncn1 [Example 86, 4-{6-[2-(5-fluoro-2,7-dimethyl-benzo[b]thiophen-3-yl)-ethylamino]-pyrimidin-4-yl}-2-(2-hydroxy-ethoxy)-benzoic acid]"
4300 nM,8 nM,9 nM,"CCOc1cc(-c2cc(NCCc3c(Cl)sc4ccccc34)ncn2)ccc1C(=O)O [Example 75, 4-{6-[2-(2-chloro-benzo[b]thiophen-3-yl)-ethylamino]-pyrimidin-4-yl}-2-ethoxy-benzoic acid]"
2250 nM,3 nM,8 nM,"CCOc1cc(-c2cc(NCCc3c(C)sc4ccccc34)ncn2)ccc1C(=O)O [Example 72, 2-Ethoxy-4-{6-[2-(2-methyl-benzo[b]thiophen-3-yl)-ethylamino]-pyrimidin-4-yl}-benzoic acid]"
1030 nM,10 nM,5 nM,"CCCSc1cc(-c2cc(NCCc3c(C)oc4ccccc34)ncn2)ccc1C(=O)O [Example 89, 4-{6-[2-(2-Methyl-benzofuran-3-yl)-ethylamino]-pyrimidin-4-yl}-2-propylsulfanyl-benzoic acid]"
625 nM,15 nM,12 nM,"CCOc1cc(-c2cc(NCCc3c(Cl)sc4c(C)cc(F)cc34)ncn2)ccc1C(=O)O [Example 59, 4-{6-[2-(2-Chloro-5-fluoro-7-methyl-benzo[b]thiophen-3-yl)-ethylamino]-pyrimidin-4-yl}-2-ethoxy-benzoic acid]"
522 nM,11 nM,7 nM,"CCOc1cc(-c2cc(NCCc3c(C)oc4c(C)cc(Cl)cc34)ncn2)ccc1C(=O)O [Example 64, 4-{6-[2-(5-Chloro-2,7-dimethyl-benzofuran-3-yl)-ethylamino]-pyrimidin-4-yl}-2-ethoxy-benzoic acid]"
461 nM,27 nM,64 nM,"CCOc1cc(-c2cc(NCCc3c(C)sc4c(Cl)ccc(Cl)c34)ncn2)ccc1C(=O)O [Example 63, 4-{6-[2-(4,7-Dichloro-2-methyl-benzo[b]thiophen-3-yl)-ethylamino]-pyrimidin-4-yl}-2-ethoxy-benzoic acid]"
428 nM,16 nM,15 nM,"CCOc1cc(-c2cc(NCCc3c(C)sc4c(Cl)cc(F)cc34)ncn2)ccc1C(=O)O [Example 65, 4-{6-[2-(7-Chloro-5-fluoro-2-methyl-benzo[b]thiophen-3-yl)-ethylamino]-pyrimidin-4-yl}-2-ethoxy-benzoic acid]"
394 nM,37 nM,80 nM,"CCOc1cc(-c2cc(NCCc3c(C)oc4c(OC)cc(Cl)cc34)ncn2)ccc1C(=O)O [Example 70, 4-{6-[2-(5-Chloro-7-methoxy-2-methyl-benzofuran-3-yl)-ethylamino]-pyrimidin-4-yl}-2-ethoxy-benzoic acid]"
372 nM,7 nM,15 nM,"CCOc1cc(-c2cc(NCCc3c(C)sc4c(C)cccc34)ncn2)ccc1C(=O)O [Example 60, 4-{6-[2-(2,7-Dimethyl-benzo[b]thiophen-3-yl)-ethylamino]-pyrimidin-4-yl}-2-ethoxy-benzoic acid]"
245 nM,22 nM,60 nM,"CCOc1cc(-c2cc(NCCc3c(C)sc4c(C)ccc(F)c34)ncn2)ccc1C(=O)O [Example 61, 2-Ethoxy-4-{6-[2-(4-fluoro-2,7-dimethyl-benzo[b]thiophen-3-yl)-ethylamino]-pyrimidin-4-yl}-benzoic acid]"
80 nM,21 nM,21 nM,"COc1ccc(F)c2c(CCNc3cc(-c4ccc(C(=O)O)c(OC5CC5)c4)ncn3)c(C)sc12 [Example 84, 2-Cyclopropoxy-4-{6-[2-(4-fluoro-7-methoxy-2-methyl-benzo[b]thiophen-3-yl)-ethylamino]-pyrimidin-4-yl}-benzoic acid]"

# From patent publication US11325899B2, “Benzofurane and benzothiophene derivatives as PGE2 receptor modulators” (IDORSIA PHARMACEUTICALS LTD, priority 2017, dated 2022)
